Laboratory results from US9145391B2, “Bipyridylaminopyridines as Syk inhibitors” (Merck Sharp & Dohme Corp., priority 2011, dated 2015).

target: recombinant human GST-Syk (Homo sapiens (Human), UniProt P43405); test: Homogeneous Time-Resolved Fluorescence (HTRF) assay for the recombinant human Syk enzyme; type: biochemical; details: recombinant human GST-Syk 5 pM, ATP 25 μM, read-out: rhSyk IC50
Description: Syk inhibition may be determined using the following assay protocol: Homogeneous Time-Resolved Fluorescence (HTRF) Assay for the Recombinant Human Syk Enzyme: A recombinant GST-hSyk fusion protein was used to measure potency of compounds to inhibit human Syk activity. […] To initiate the reaction the biotinylated substrate peptide (250 nM final concentration) that contains the phosphorylation site for Syk was added with magnesium (5 mM final concentration) and ATP (25 μM final concentration). […] Final volume of the quenching solution was 10 μL.

Row | Structure (SMILES) | IC50 [nM]
1 | Cc1cc(Nc2cc(C(F)F)ccn2)nc(-c2ccc(C(C)(O)[C@H]3CC[C@H](C(=O)O)CC3)nc2)c1 (single isomer, unassigned) [Example 16, Sodium trans-4-[(1R or 1S)-1-(6-{[4-(difluoromethyl)pyridin-2-yl]amino}-4-methyl-2,3′-bipyridin-6′-yl)-1-hydroxyethyl]cyclohexanecarboxylate] | < 0.5
2 | Cc1cc(Nc2cc(C(F)(F)F)ccn2)nc(-c2ccc(NC3CCN(C(=O)OC(C)(C)C)CC3)nc2)c1 [Example 2-4] | 91
3 | Cc1cc(Nc2cc(C(F)(F)F)ccn2)nc(-c2ccc(N3CC(C4CCCC(C(=O)O)C4)C3)nc2)c1 (stereo not drawn) [Example 2-21] | 2
4 | COC(=O)C1CCC(O)(c2ccc(-c3cc(C)cc(Nc4cc(C(F)(F)F)ccn4)n3)cn2)CC1(C)C (single isomer, unassigned) [Example 1-7] | 245
5 | Cc1cc(Nc2cc(C(F)(F)F)ccn2)nc(-c2ccc(C3(O)CCC(C(=O)O)C(C)(C)C3)nc2)c1 (stereo not drawn) [Example 1-24] | 8
6 | Cc1cc(Nc2cc(C(F)(F)F)ccn2)nc(-c2ccc(C3(O)CCC(C(=O)O)C(C)(C)C3)nc2)c1 (stereo not drawn) [Example 1-23] | 29
7 | Cc1cc(Nc2cc(C(F)(F)F)ccn2)nc(-c2ccc(C(C)(O)[C@H]3CC[C@H](C(=O)O)CC3)nc2)c1 (single isomer, unassigned) [Example 1, trans-4-((1R or 1S)-1-Hydroxy-1-(4-methyl-6-(4-(trifluoromethyl)pyridin-2-ylamino)-2,3′-bipyridin-6′-yl)ethyl)cyclohexanecarboxylic acid] | < 0.5
8 | Cc1cc(Nc2cc(C(F)(F)F)ccn2)nc(-c2ccc(NC3CCN(C(N)=O)CC3)nc2)c1 [Example 7, 4-(4-Methyl-6-(4-(trifluoromethyl)pyridin-2-ylamino)-2,3′-bipyridin-6′-ylamino)piperidine-1-carboxamide] | 4
9 | CCC(O)(c1ccc(-c2cc(C)cc(Nc3cc(C(F)(F)F)ccn3)n2)cn1)C1CCC(C(=O)OC)CC1 (stereo not drawn) [Example 1-16] | 12
10 | CCOC(=O)C1CCC(O)(c2ccc(-c3cc(C)cc(Nc4cc(C(F)(F)F)ccn4)n3)cn2)CC1 (stereo not drawn) [Example 1-11] | 47
11 | Cc1cc(Nc2cc(C(F)(F)F)ccn2)nc(-c2ccc(F)nc2)c1 [Example 1-1] | 38
12 | Cc1cc(Nc2cc(C(F)F)ccn2)nc(-c2ccc(C(C)(O)[C@H]3CC[C@H](C(=O)OCCO)CC3)nc2)c1 (single isomer, unassigned) [Example 18, 2-Hydroxyethyl trans-4-[(1R or 1S)-1-(6-{[4-(difluoromethyl)pyridin-2-yl]amino}-4-methyl-2,3′-bipyridin-6′-yl)-1-hydroxyethyl]cyclohexanecarboxylate] | 3.4
13 | Cc1cc(Nc2cc(C(F)(F)F)ccn2)nc(-c2ccc(NCC3CCC(C(=O)O)CC3)nc2)c1 (stereo not drawn) [Example 2-23] | 3

Results, then the compound that gave them:

Row | IC50 [nM] | Structure (SMILES)
14 | 50 | Cc1cc(Nc2cc(C(F)F)ccn2)nc(-c2ccc(C(C)(O)[C@H]3CC[C@H](C(=O)OC(C)OC(=O)OC(C)C)CC3)nc2)c1 (single isomer, unassigned) [Example 20-8, 1-{[(propan-2-yloxy)carbonyl]oxy}ethyl trans-4-[(1R or 1S)-1-(6-{[4-(difluoromethyl)pyridin-2-yl]amino}-4-methyl-2,3′-bipyridin-6′-yl)-1-hydroxyethyl] cyclohexanecarboxylate]
15 | 9 | Cc1cc(Nc2cc(C(F)(F)F)ccn2)nc(-c2ccc(NC3CCN(C(=O)Cc4ccc(-c5cn[nH]c5)cc4)CC3)nc2)c1 [Example 4-1]
16 | 83 | COc1c(C(=O)N2CCC(Nc3ccc(-c4cc(C)cc(Nc5cc(C(F)(F)F)ccn5)n4)cn3)CC2)ccc2ccccc12 [Example 4-64]
17 | 3 | Cc1cc(Nc2cc(C(F)(F)F)ccn2)nc(-c2ccc(NC3CCN(C(=O)Cc4cccc(C#N)c4)CC3)nc2)c1 [Example 4-82]
18 | 1.5 | CC(=O)OC(C)OC(=O)[C@H]1CC[C@H](C(C)(O)c2ccc(-c3cc(C)cc(Nc4cc(C(F)F)ccn4)n3)cn2)CC1 (single isomer, unassigned) [Example 21-3, 1-(acetyloxy)ethyl trans-4-[(1R or 1S)-1-(6-{[4-(difluoromethyl)pyridin-2-yl]amino}-4-methyl-2,3′-bipyridin-6′-yl)-1-hydroxyethyl] cyclohexanecarboxylate]
19 | 32 | CCCOC(=O)[C@H]1CC[C@H](C(C)(O)c2ccc(-c3cc(C)cc(Nc4cc(C(F)F)ccn4)n3)cn2)CC1 (single isomer, unassigned) [Example 19-2, propyl trans-4-[(1R or 1S)-1-(6-{[4-(difluoromethyl)pyridin-2-yl]amino}-4-methyl-2,3′-bipyridin-6′-yl)-1-hydroxyethyl] cyclohexanecarboxylate]
20 | 176 | Cc1cc(Nc2cc(C(F)(F)F)ccn2)nc(-c2ccc(NC3CCN(C(=O)c4cc5ccccc5n4-c4ccccc4)CC3)nc2)c1 [Example 4-118]
21 | 510 | Cc1cc(Nc2cc(C(F)F)ccn2)nc(-c2ccc(C(C)(O)[C@H]3CC[C@H](C(=O)OC(C)OC(=O)OC4CCCCC4)CC3)nc2)c1 (single isomer, unassigned) [Example 20-4, 1-{[(cyclohexyloxy)carbonyl]oxy}ethyl trans-4-[(1R or 1S)-1-(6-{[4-(difluoromethyl)pyridin-2-yl]amino}-4-methyl-2,3′-bipyridin-6′-yl)-1-hydroxyethyl] cyclohexanecarboxylate]
22 | 190 | CCCCCCOC(=O)[C@H]1CC[C@H](C(C)(O)c2ccc(-c3cc(C)cc(Nc4cc(C(F)F)ccn4)n3)cn2)CC1 (single isomer, unassigned) [Example 19-9, hexyl trans-4-[(1R or 1S)-1-(6-{[4-(difluoromethyl)pyridin-2-yl]amino}-4-methyl-2,3′-bipyridin-6′-yl)-1-hydroxyethyl] cyclohexanecarboxylate]
23 | 12 | Cc1cc(Nc2cc(C(F)(F)F)ccn2)nc(-c2ccc(NC3CCN(C(=O)Cc4ccccc4Cl)CC3)nc2)c1 [Example 4-95]
24 | 10 | Cc1cc(Nc2cc(C(F)(F)F)ccn2)nc(-c2ccc(NC3CCN(C(=O)c4cnc5ccc(C)cc5c4)CC3)nc2)c1 [Example 4-51]
25 | 223 | COc1ccc2cc(C(C)C(=O)N3CCC(Nc4ccc(-c5cc(C)cc(Nc6cc(C(F)(F)F)ccn6)n5)cn4)CC3)ccc2c1 (stereo not drawn) [Example 4-55]
26 | 2 | Cc1cc(Nc2cc(C(F)(F)F)ccn2)nc(-c2ccc(NC3CCN(C(=O)c4ccc5c(c4)CNC5=O)CC3)nc2)c1 [Example 4-5]
27 | 10 | Cc1cc(Nc2cc(C(F)(F)F)ccn2)nc(-c2ccc(C3(O)CCN(C(=O)c4c[nH]c5cc(C)ccc45)CC3)nc2)c1 [Example 9-3]
28 | 8.7 | Cc1cc(Nc2cc(C(F)F)ccn2)nc(-c2ccc(C(C)(O)[C@H]3CC[C@H](C(=O)OC4CCOCC4)CC3)nc2)c1 (single isomer, unassigned) [Example 19-13, tetrahydro-2H-pyran-4-yl trans-4-[(1R or 1S)-1-(6-{[4-(difluoromethyl)pyridin-2-yl]amino}-4-methyl-2,3′-bipyridin-6′-yl)-1-hydroxyethyl] cyclohexanecarboxylate]
29 | 8 | Cc1cc(Nc2cc(C(F)(F)F)ccn2)nc(-c2ccc(NC3CCN(C(=O)Cc4ccc5[nH]c(C)c(C)c5c4)CC3)nc2)c1 [Example 4-34]
30 | 102 | Cc1cc(Nc2cc(C(F)(F)F)ccn2)nc(-c2ccc(NC3CCN(C(=O)c4cccc(C(F)(F)F)c4)CC3)nc2)c1 [Example 4-40]
31 | 23 | Cc1cc(Nc2cc(C(F)F)ccn2)nc(-c2ccc(C(C)(O)[C@H]3CC[C@H](C(=O)OC(C)OC(=O)C(C)C)CC3)nc2)c1 (single isomer, unassigned) [Example 21-4, 1-[(2-methylpropanoyl)oxy]ethyl trans-4-[(1R or 1S)-1-(6-{[4-(difluoromethyl)pyridin-2-yl]amino}-4-methyl-2,3′-bipyridin-6′-yl)-1-hydroxyethyl] cyclohexanecarboxylate]
32 | 7 | Cc1cc(Nc2cc(C(F)(F)F)ccn2)nc(-c2ccc(NC3CCN(C(=O)c4cccc5cccnc45)CC3)nc2)c1 [Example 4-45]
33 | 14 | Cc1cc(Nc2cc(C(F)(F)F)ccn2)nc(-c2ccc(NC3CCN(C(=O)c4cc(-c5ccccc5)n[nH]4)CC3)nc2)c1 [Example 4-10]
34 | 13 | Cc1cc(Nc2cc(C(F)(F)F)ccn2)nc(-c2ccc(C3(O)CCN(C(=O)c4ccc5cc[nH]c5c4)CC3)nc2)c1 [Example 9-2]
35 | 4 | Cc1cc(Nc2cc(C(F)(F)F)ccn2)nc(-c2ccc(NC3CCN(C(=O)Cc4ccc(O)c(F)c4)CC3)nc2)c1 [Example 4-116]
36 | 32 | Cc1cc(Nc2cc(C(F)(F)F)ccn2)nc(-c2ccc(N3CCCC(NC(=O)c4ccc5cc[nH]c5c4)C3)nc2)c1 (stereo not drawn) [Example 4-17]
37 | 10 | Cc1cc(Nc2cc(C(F)(F)F)ccn2)nc(-c2ccc(NC3CCN(C(=O)c4ccc5[nH]cc(C)c5c4)CC3)nc2)c1 [Example 4-7]
38 | 30 | Cc1cc(Nc2cc(C(F)(F)F)ccn2)nc(-c2ccc(NC3CCN(C(=O)c4cc(-n5cccn5)ccc4Cl)CC3)nc2)c1 [Example 4-48]
39 | 6 | COc1ccccc1C(=O)N1CCC(Nc2ccc(-c3cc(C)cc(Nc4cc(C(F)(F)F)ccn4)n3)cn2)CC1 [Example 4-87]
40 | 44 | Cc1cc(Nc2cc(C(F)(F)F)ccn2)nc(-c2ccc(NC3CCN(C(=O)c4ccc(-c5ccccc5)cc4)CC3)nc2)c1 [Example 4-81]
41 | 24 | Cc1cc(Nc2cc(C(F)(F)F)ccn2)nc(-c2ccc(NC3CCN(C(=O)c4ccnc5ccccc45)CC3)nc2)c1 [Example 4-66]
42 | 9 | Cc1cc(Nc2cc(C(F)(F)F)ccn2)nc(-c2ccc(NC3CCN(C(=O)Cc4ccc(O)c(Cl)c4)CC3)nc2)c1 [Example 4-100]
